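Values below derive from 48-hour exposures of cells grown in 96-well plates, with endpoints linearly interpolated between the two concentrations bracketing the appropriate inhibition level. GI50 is the concentration that inhibits growth by half. TGI marks complete inhibition of growth.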
Tests used:
Assay in all cases: NCI tumour cell line growth inhibition, 48 h
[1] = test system: HL-60(TB) leukemia
[2] = test system: A498 renal
[3] = test system: CCRF-CEM leukemia
[4] = test system: ACHN renal
[5] = test system: SK-MEL-2 melanoma
[6] = test system: LOX IMVI melanoma
[7] = test system: MCF7 breast
[8] = test system: MDA-MB-231 breast
[9] = test system: HCC-2998 colon
[10] = test system: SK-OV-3 ovarian
[11] = test system: NCI-H23 lung
[12] = test system: BT-549 breast
[13] = test system: SW-620 colon
[14] = test system: SK-MEL-28 melanoma
[15] = test system: SF-268 CNS
[16] = test system: NCI-H460 lung
[17] = test system: SNB-75 CNS
[18] = test system: HCT-15 colon
[19] = test system: OVCAR-3 ovarian
[20] = test system: EKVX NSCLC
[21] = test system: RPMI-8226 leukemia
[22] = test system: HCT-116 colon
[23] = test system: OVCAR-8 ovarian
[24] = test system: 786-0 renal
[25] = test system: SK-MEL-5 melanoma
[26] = test system: OVCAR-4 ovarian
[27] = test system: NCI-H522 lung
[28] = test system: TK-10 renal
[29] = test system: SF-539 CNS
[30] = test system: IGROV1 ovarian
[31] = test system: HOP-92 NSCLC
[32] = test system: SN12C renal
[33] = test system: MOLT-4 leukemia
[34] = test system: OVCAR-5 ovarian
[35] = test system: K-562 leukemia
[36] = test system: MALME-3M melanoma
[37] = test system: PC-3 prostate
[38] = test system: SF-295 CNS
[39] = test system: HS 578T breast
[40] = test system: UACC-257 melanoma
[41] = test system: SR leukemia
[42] = test system: T-47D breast
[43] = test system: NCI-H226 lung
[44] = test system: DU-145 prostate
[45] = test system: M14 melanoma
[46] = test system: CAKI-1 renal
[47] = test system: NCI/ADR-RES ovarian
[48] = test system: A549 NSCLC
[49] = test system: HT29 colon
[50] = test system: UACC-62 melanoma
[51] = test system: KM12 colon
[52] = test system: HOP-62 NSCLC
[53] = test system: MDA-MB-435
[54] = test system: RXF 393 renal
[55] = test system: SNB-19 CNS
[56] = test system: UO-31 renal
[57] = test system: COLO 205 colon
[58] = test system: U251 CNS

Work on `COc1ccc(/C=C2\CS(=O)(=O)C/C(=C\c3ccc(OC)cc3)C2=O)cc1` yielded a GI50 [1] of 1960 nM, a TGI [1] of 5.73 µM and a GI50 [2] of 1760 nM. The TGI [2] was 3.67 µM, the GI50 [3] was 1350 nM and the GI50 [4] was 1790 nM. It also gave a TGI [4] of 3.35 µM, a GI50 [5] of 3090 nM and a TGI [5] greater than 20.9 µM. The GI50 [6] was 646 nM, the TGI [6] was 1.91 µM and the GI50 [7] was 510 nM. The TGI [7] was 7.83 µM, the GI50 [8] was 3010 nM and the TGI [8] was 9.65 µM. The GI50 [9] was 1710 nM, the TGI [9] was 3.09 µM and the GI50 [10] was 3.3 µM. The TGI [10] was 26.2 µM, the GI50 [11] was 1640 nM and the TGI [11] was 3.32 µM. It also gave a GI50 [12] of 2170 nM, a TGI [12] of 5.28 µM and a GI50 [13] of 1320 nM. The TGI [13] was 3.37 µM, the GI50 [14] was 1700 nM and the TGI [14] was 3.17 µM. The GI50 [15] was 1700 nM, the TGI [15] was 5.34 µM and the GI50 [16] was 1900 nM. It also gave a TGI [16] of 4.49 µM, a GI50 [17] of 8.18 µM and a TGI [17] greater than 47.4 µM. It also gave a GI50 [18] of 1840 nM, a TGI [18] of 4.82 µM and a GI50 [19] of 1790 nM. For the same molecule, the TGI [19] was 4110 nM, the GI50 [20] was 3070 nM and the TGI [20] was greater than 36.8 µM. It also gave a GI50 [21] of 567 nM, a TGI [21] of 4.89 µM and a GI50 [22] of 472 nM. The TGI [22] was 1.43 µM, the GI50 [23] was 1210 nM and the TGI [23] was 6.68 µM. It also gave a GI50 [24] of 1750 nM, a TGI [24] of 3.21 µM and a GI50 [25] of 1570 nM. The TGI [25] was 2920 nM, the GI50 [26] was 3190 nM and the TGI [26] was greater than 30800 nM. The GI50 [27] was 1150 nM, the TGI [27] was 3.02 µM and the GI50 [28] was 2.67 µM. The TGI [28] was 6.91 µM, the GI50 [29] was 2010 nM and the TGI [29] was 4.28 µM. It also gave a GI50 [30] of 1750 nM, a TGI [30] of 5.71 µM and a GI50 [31] of 8.74 µM. It also gave a TGI [31] of 69 µM, a GI50 [32] of 1780 nM and a TGI [32] of 4.04 µM. For the same molecule, the GI50 [33] was 2220 nM, the TGI [33] was greater than 22.2 µM and the GI50 [34] was 3160 nM. The TGI [34] was 10.3 µM, the GI50 [35] was 1160 nM and the GI50 [36] was 2410 nM. The TGI [36] was 7.84 µM, the GI50 [37] was 2090 nM and the TGI [37] was 18.1 µM. For the same molecule, the GI50 [38] was 2420 nM, the TGI [38] was 6.59 µM and the GI50 [39] was 3070 nM. The TGI [39] was greater than 31.3 µM, the GI50 [40] was 1670 nM and the TGI [40] was 3630 nM. The GI50 [41] was 182 nM, the TGI [41] was 423 nM and the GI50 [42] was 2910 nM. The TGI [42] was 28.4 µM, the GI50 [43] was 16.8 µM and the TGI [43] was greater than 100 µM. It also gave a GI50 [44] of 2000 nM, a TGI [44] of 5.41 µM and a GI50 [45] of 1610 nM. It also gave a TGI [45] of 3090 nM, a GI50 [46] of 2160 nM and a TGI [46] of 6.1 µM. It also gave a GI50 [47] of 2060 nM, a TGI [47] of 4.87 µM and a GI50 [48] of 2000 nM. The TGI [48] was 5.29 µM, the GI50 [49] was 999 nM and the GI50 [50] was 1440 nM. For the same molecule, the TGI [50] was 2780 nM, the GI50 [51] was 676 nM and the TGI [51] was 1.89 µM. It also gave a GI50 [52] of 2010 nM, a TGI [52] of 4.36 µM and a GI50 [53] of 1400 nM. The TGI [53] was 5.29 µM, the GI50 [54] was 1480 nM and the TGI [54] was 2.9 µM. The GI50 [55] was 4.21 µM, the TGI [55] was 18.1 µM and the GI50 [56] was 1450 nM. It also gave a TGI [56] of 3.02 µM, a GI50 [57] of 1520 nM and a TGI [57] of 2940 nM. It also gave a GI50 [58] of 497 nM and a TGI [58] of 1.85 µM.

Molecule `COC(=O)c1c2c(c(C)[n+]([O-])c1C)C(=O)C(NCc1cccc(Cl)c1)=CC2=O` has a GI50 [1] of 628 nM, a TGI [1] of 3.55 µM and a GI50 [2] of 1560 nM. It also gave a TGI [2] of 3.18 µM, a GI50 [3] of 2290 nM and a TGI [3] of 8.53 µM. The GI50 [4] was 1520 nM, the TGI [4] was 3.58 µM and the GI50 [5] was 1950 nM. It also gave a TGI [5] of 4.6 µM, a GI50 [6] of 1760 nM and a TGI [6] of 5.58 µM. It also gave a GI50 [7] of 1100 nM, a TGI [7] of 2.77 µM and a GI50 [8] of 1180 nM. The TGI [8] was 4.88 µM, the GI50 [9] was 1820 nM and the TGI [9] was 4.46 µM. It also gave a GI50 [10] of 3.05 µM, a TGI [10] of 12.8 µM and a GI50 [11] of 1230 nM. For the same molecule, the TGI [11] was 3.25 µM, the GI50 [12] was 1540 nM and the TGI [12] was 3.07 µM. It also gave a GI50 [13] of 1010 nM, a TGI [13] of 4.31 µM and a GI50 [14] of 3170 nM. It also gave a TGI [14] of 15 µM, a GI50 [15] of 2530 nM and a TGI [15] of 12.9 µM. The GI50 [16] was 659 nM, the TGI [16] was 7.92 µM and the GI50 [17] was 2.1 µM. The TGI [17] was 5.07 µM, the GI50 [18] was 1100 nM and the TGI [18] was 2.75 µM. It also gave a GI50 [19] of 322 nM, a TGI [19] of 1170 nM and a GI50 [20] of 1510 nM. It also gave a TGI [20] of 3.61 µM, a GI50 [21] of 2140 nM and a TGI [21] of 7.81 µM. It also gave a GI50 [22] of 679 nM, a TGI [22] of 4.9 µM and a GI50 [23] of 1520 nM. For the same molecule, the TGI [23] was 9.78 µM, the GI50 [24] was 2650 nM and the TGI [24] was 13.9 µM. The GI50 [25] was 200 nM, the TGI [25] was 448 nM and the GI50 [26] was 507 nM. For the same molecule, the TGI [26] was 1850 nM, the GI50 [27] was 1910 nM and the TGI [27] was 4.62 µM. For the same molecule, the GI50 [28] was 3.69 µM, the TGI [28] was 15.3 µM and the GI50 [29] was 1800 nM. For the same molecule, the TGI [29] was 3.26 µM, the GI50 [30] was 1170 nM and the TGI [30] was 2.98 µM. The GI50 [31] was 2.22 µM, the TGI [31] was 4.54 µM and the GI50 [32] was 1020 nM. The TGI [32] was 2.44 µM, the GI50 [33] was 2010 nM and the TGI [33] was 5.68 µM. It also gave a GI50 [34] of 1810 nM, a TGI [34] of 3.63 µM and a GI50 [35] of 2170 nM. It also gave a TGI [35] greater than 100 µM, a GI50 [36] of 171 nM and a TGI [36] of 0.432 µM. The GI50 [37] was 1620 nM, the TGI [37] was 17.9 µM and the GI50 [38] was 1310 nM. It also gave a TGI [38] of 2.72 µM, a GI50 [39] of 2320 nM and a TGI [39] of 6.91 µM. The GI50 [40] was 701 nM, the TGI [40] was 2280 nM and the GI50 [41] was 1850 nM. The TGI [41] was greater than 100000 nM, the GI50 [42] was 1690 nM and the TGI [42] was 4.41 µM. For the same molecule, the GI50 [43] was 2.1 µM, the TGI [43] was 4.67 µM and the GI50 [44] was 1910 nM. The TGI [44] was 4.2 µM, the GI50 [45] was 1060 nM and the TGI [45] was 2400 nM. It also gave a GI50 [46] of 1970 nM, a TGI [46] of 5.63 µM and a GI50 [47] of 1640 nM. For the same molecule, the TGI [47] was 5.81 µM, the GI50 [48] was 1940 nM and the TGI [48] was 6.17 µM. The GI50 [49] was 634 nM, the TGI [49] was greater than 100 µM and the GI50 [50] was 1240 nM. For the same molecule, the TGI [50] was 2840 nM, the GI50 [51] was 1560 nM and the TGI [51] was 9.73 µM. For the same molecule, the GI50 [52] was 2300 nM, the TGI [52] was 9.62 µM and the GI50 [53] was 344 nM. The TGI [53] was 1.13 µM, the GI50 [54] was 1480 nM and the TGI [54] was 3.37 µM. It also gave a GI50 [55] of 2.45 µM, a TGI [55] of 7.8 µM and a GI50 [56] of 1530 nM. For the same molecule, the TGI [56] was 3.23 µM, the GI50 [57] was 388 nM and the TGI [57] was 1550 nM. The GI50 [58] was 2100 nM and the TGI [58] was 7.52 µM.

Reference: PubChem BioAssay (NCI)
